{"source": "patent US8192962B2", "about": "“Processes for detecting toxic substances” (Daikin Industries, Ltd., priority 2001, dated 2012)", "system": "Mitochondria-located protein genes", "assay": "DNA chip mRNA expression in yeast, mitochondria-located protein genes (Table 2)", "format": "cell-based, Saccharomyces cerevisiae S288C", "conditions": "cells incubated two hours with the chemical substance", "method_in_brief": "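S. cerevisiae S288C grown at 25° C. in YPD to log phase, then exposed 2 h to a toxicant at a growth-inhibiting, non-lethal concentration; untreated cells as control. Poly(A) mRNA reverse-transcribed with Cy3-dUTP or Cy5-dUTP, hybridized >12 h at 65° C. to whole-genome yeast DNA chip; value = fluorescence ratio treated/untreated.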"}
{"smiles": "C[S+](C)[O-]", "note": "[(15), dimethylsulfoxide]", "values": [{"measurement": "The level of expressed mRNA in the presence of chemical substance/The level of expressed mRNA in the absence of chemical substance", "setting": "yeast gene YBR029C", "result": 3.5}, {"measurement": "The level of expressed mRNA in the presence of chemical substance/The level of expressed mRNA in the absence of chemical substance", "setting": "yeast gene YBR291C", "result": 0.5}, {"measurement": "The level of expressed mRNA in the presence of chemical substance/The level of expressed mRNA in the absence of chemical substance", "setting": "yeast gene YDR529C", "result": 0.5}, {"measurement": "The level of expressed mRNA in the presence of chemical substance/The level of expressed mRNA in the absence of chemical substance", "setting": "yeast gene YEL039C", "result": 0.4}, {"measurement": "The level of expressed mRNA in the presence of chemical substance/The level of expressed mRNA in the absence of chemical substance", "setting": "yeast gene YGR029W", "result": 0.4}, {"measurement": "The level of expressed mRNA in the presence of chemical substance/The level of expressed mRNA in the absence of chemical substance", "setting": "yeast gene YGR062C", "result": 0.5}, {"measurement": "The level of expressed mRNA in the presence of chemical substance/The level of expressed mRNA in the absence of chemical substance", "setting": "yeast gene YGR076C", "result": 0.5}, {"measurement": "The level of expressed mRNA in the presence of chemical substance/The level of expressed mRNA in the absence of chemical substance", "setting": "yeast gene YIL022W", "result": 2.9}, {"measurement": "The level of expressed mRNA in the presence of chemical substance/The level of expressed mRNA in the absence of chemical substance", "setting": "yeast gene YIL094C", "result": 0.5}, {"measurement": "The level of expressed mRNA in the presence of chemical substance/The level of expressed mRNA in the absence of chemical substance", "setting": "yeast gene YJL166W", "result": 0.5}, {"measurement": "The level of expressed mRNA in the presence of chemical substance/The level of expressed mRNA in the absence of chemical substance", "setting": "yeast gene YKL085W", "result": 0.5}, {"measurement": "The level of expressed mRNA in the presence of chemical substance/The level of expressed mRNA in the absence of chemical substance", "setting": "yeast gene YKL170W", "result": 0.8}, {"measurement": "The level of expressed mRNA in the presence of chemical substance/The level of expressed mRNA in the absence of chemical substance", "setting": "yeast gene YKL194C", "result": 0.8}, {"measurement": "The level of expressed mRNA in the presence of chemical substance/The level of expressed mRNA in the absence of chemical substance", "setting": "yeast gene YKR052C", "result": 0.5}, {"measurement": "The level of expressed mRNA in the presence of chemical substance/The level of expressed mRNA in the absence of chemical substance", "setting": "yeast gene YLL041C", "result": 0.4}, {"measurement": "The level of expressed mRNA in the presence of chemical substance/The level of expressed mRNA in the absence of chemical substance", "setting": "yeast gene YLR295C", "result": 0.5}, {"measurement": "The level of expressed mRNA in the presence of chemical substance/The level of expressed mRNA in the absence of chemical substance", "setting": "yeast gene YLR395C", "result": 0.4}, {"measurement": "The level of expressed mRNA in the presence of chemical substance/The level of expressed mRNA in the absence of chemical substance", "setting": "yeast gene YML110C", "result": 1.3}, {"measurement": "The level of expressed mRNA in the presence of chemical substance/The level of expressed mRNA in the absence of chemical substance", "setting": "yeast gene YML120C", "result": 0.5}, {"measurement": "The level of expressed mRNA in the presence of chemical substance/The level of expressed mRNA in the absence of chemical substance", "setting": "yeast gene YOR037W", "result": 0.9}, {"measurement": "The level of expressed mRNA in the presence of chemical substance/The level of expressed mRNA in the absence of chemical substance", "setting": "yeast gene YOR374W", "result": 2.5}]}
